Key:
[1] = tested on: Schwann cells; assay: In vitro process outgrowth of Schwann cells; format: cell-based, C57BL/6J mice; conditions: compared to control; Figure 2C, D
Method: Primary cultures of cerebellar neurons or Schwann cells were prepared from cerebellum or dorsal root ganglia of 7-day-old C57BL/6J mice as described in Mehanna et al. (2009), Brain, 132 (Pt 6): 1449-62 and Loers et al. (2005), J. Neurochem., 92(6): 1463-76. Motoneurons were prepared from E14 C57BL/6J mice as described in Simova et al. (2006), Ann. Neurol., 60(4): 430-437. In brief, 48-well plates were coated with 0.01% poly-L-lysine (PLL) or poly-L-ornithine (PLO) overnight at 4°C, washed twice with water and air-dried. Directly before use, plates were washed twice with PBS, and Schwann cells, cerebellar neurons (PLL) or motoneurons (PLO) were seeded at a density of 1.25 x 10^4 (Schwann cells and motoneurons) or 2.5 x 10^4 cells (cerebellar neurons) per well in 250 µl of corresponding serum-free culture medium. Soluble organic compounds were added to the culture 1 h after seeding in increasing concentrations. […] Morphological quantification of neurite or process lengths was performed as described in Mehanna et al. (2009), see above. Schwann cell processes and neurites of cerebellar neurons with a length of at least one cell body diameter were counted and total neurite or process length per cell was determined by counting 50 cells in each of two wells per experiment. […]

[2] = tested on: anti-PSA antibody 735; assay: Competition ELISA: antibody 735 binding to immobilized PSA mimicking peptide
Method: To confirm that the compounds identified in the screening from Example 1 are indeed PSA mimetics, binding of tegaserod maleate ((E)-but-2-enedioic acid; 1-[[(Z)-(5-methoxyindol-3-ylidene) methyl]amino]-2-pentylguanidine; hereafter termed tegaserod) and the control compound nitrendipine (5-O-ethyl 3-O-methyl-2,6-dimethyl-4-(3-nitrophenyl)-1,4-dihydropyridine-3,5-dicarboxylate) to the PSA antibody 735 was analyzed by competition ELISA. 384-well flat bottom microtiter plates (Corning Life Sciences) were coated in triplicates with 25 µl of PSA mimicking peptide coupled to catalase (3 µg/ml) or PBS alone at 4°C overnight. All following steps were carried out at room temperature. After blocking with 1% BSA in PBS for 1 h, the wells were washed three times for 5 min with PBS containing 0.05% Tween-20 (PBST). Wells were incubated with increasing concentrations of tegaserod and nitrendipine, pre-incubated with anti-PSA antibody 735 (0.1 µg/ml) for 1 h. […] The reaction was stopped by addition of 50 µl 2.5 M H2SO4 and quantified using an ELISA reader (µQuant, Bio-TEK, Winooski, VT, USA) at 490 nm and the software KCjunior (Bio-TEK).

[3] = tested on: murine motoneurons; assay: In vitro neurite outgrowth of motoneurons; format: cell-based, C57BL/6J mice; conditions: tegaserod, cisapride, GR113808 100 nM; colominic acid 3 µM; PSA mimicking peptide 30 µM; Figure 2B
Method: Primary cultures of cerebellar neurons or Schwann cells were prepared from cerebellum or dorsal root ganglia of 7-day-old C57BL/6J mice as described in Mehanna et al. (2009), Brain, 132 (Pt 6): 1449-62 and Loers et al. (2005), J. Neurochem., 92(6): 1463-76. Motoneurons were prepared from E14 C57BL/6J mice as described in Simova et al. (2006), Ann. Neurol., 60(4): 430-437. In brief, 48-well plates were coated with 0.01% poly-L-lysine (PLL) or poly-L-ornithine (PLO) overnight at 4°C, washed twice with water and air-dried. Directly before use, plates were washed twice with PBS, and Schwann cells, cerebellar neurons (PLL) or motoneurons (PLO) were seeded at a density of 1.25 x 10^4 (Schwann cells and motoneurons) or 2.5 x 10^4 cells (cerebellar neurons) per well in 250 µl of corresponding serum-free culture medium. Soluble organic compounds were added to the culture 1 h after seeding in increasing concentrations. After maintenance for 24 h at 37°C, cells were fixed with 2.5% glutaraldehyde and stained with 1% methylene blue/toluidine blue in 1% borax. Morphological quantification of neurite or process lengths was performed as described in Mehanna et al. (2009), see above. Schwann cell processes and neurites of cerebellar neurons with a length of at least one cell body diameter were counted and total neurite or process length per cell was determined by counting 50 cells in each of two wells per experiment. At least three independent experiments were performed for each culture. Also, the activity of tegaserod with the PSA peptide mimic and the bacterial PSA analogue, colominic acid, on neurite and process extension experiments was compared.

[4] = tested on: 2 mm femoral nerve defect; assay: Femoral nerve regeneration: locomotor recovery (FBA, PLR, recovery index); format: in vivo, C57BL/6J mice; conditions: for average FBA (foot base angle): end of the 15-week study, control group 93 degrees
Description: Briefly, mice were anesthetized and the femoral nerve of the left rear leg exposed. The nerve was bis-sected 3 mm proximal to the branching of the saphenous and motor branches, and the nerve ends were sutured 0.5 mm into a 3 mm polyethylene conduits with 0.58 mm inner diameter (Becton Dickinson), leaving an overall gap length of 2 mm.
The FBA measures the angle between the hind paw and a beam as the mouse is pushing and bearing weight with the foot of the injured limb.
FBA is governed largely by the quadriceps muscle, the major muscular innervation target of the femoral nerve. Mice were trained to walk on a beam for 2 weeks prior to surgery and single frame video motion analysis (Simi Reality Motion Systems, Simi Sportsplayer) was used to quantify the angle between the beam and the foot when the toes from the left leg are fully extended.
As a complement to assessment of the FBA that measures a weight-bearing reflexive movement, the protraction limb ratio (PLR) is indicative of voluntary movement of the hind limb. […] Mice are suspended by the tail above a pencil and allowed to grasp the pencil. The PLR is measured by dividing the relative length that the uninjured hind leg extends to the pencil by the length that the injured hind limb extends.
To account for any variability between animals, an index is calculated that takes into account the initial FBA and PLR of animals prior to surgery. The recovery index is calculated by the equation: RI= (Xday y-Xday 1wk)/(Xday 0-Xday 7) x 100, where Xday0 is the measurement before injury, Xday 1wk is the measurement one week after injury, and Xday y is the measurement at the study endpoint. An RI value 100 indicates complete recovery of function.

[5] = tested on: quadriceps muscle; assay: Quadriceps muscle mass after femoral nerve injury; format: in vivo, C57BL/6J mice; conditions: 15 week recovery, control group 111 mg
Method: Tegaserod was evaluated in a 2 mm femoral nerve defect of 12-week old C57BL/6J mice as previously described in Mehanna et al. (2009), see above. Briefly, mice were anesthetized and the femoral nerve of the left rear leg exposed. The nerve was bis-sected 3 mm proximal to the branching of the saphenous and motor branches, and the nerve ends were sutured 0.5 mm into a 3 mm polyethylene conduits with 0.58 mm inner diameter (Becton Dickinson), leaving an overall gap length of 2 mm. Conduits were filled with PuraMatrix peptide hydrogel (Becton Dickinson 354250) using 2x PBS as the gelation stimulant. Tegaserod was dissolved in the 2x PBS at concentrations of 500 nM and 5,000 nM, resulting in final concentrations of 250 nM and 2,500 nM once the PBS was combined 1:1 v/v with the PuraMatrix.
The quadriceps muscle, which is solely innervated by the femoral nerve, was extracted from each mouse and weighed at the end of the 15 week recovery period. The quadriceps muscles were removed from the injured and uninjured hind limbs of the mice. The quadriceps femoris muscle was identified by first removing the skin overlying the cranial thigh. The muscle was bluntly dissected starting distally at the level of the patellar tendon, working proximally. […]

With [H]/N=C(/NCCCCC)N/N=C/c1c[nH]c2ccc(OC)cc12 [tegaserod, (E)-but-2-enedioic acid; 1-[[(Z)-(5-methoxyindol-3-ylidene)methyl]amino]-2-pentylguanidine] the “effect on process outgrowth of Schwann cells (in words)” value [1] was “significantly enhance neurite/process outgrowth compared to control”, the “concentration of maximal inhibition of binding of mAb 735 with the PSA peptide mimic” value ([2]; competition ELISA, Figure 1A) was “approximately 100 nM” and the “inhibition of binding of mAb 735 with the PSA peptide mimic (in words)” value ([2]; increasing concentrations, pre-incubated with antibody 735 (0.1 µg/ml) for 1 h) was “inhibit binding of mAb 735 with the PSA peptide mimic in a dose dependent manner”. For the same molecule, the “effect on neurite extension of murine motoneurons (in words)” value [3] was “significant stimulatory effect”, the “time after nerve injury at which sustained improvement of the FBA first became apparent” value ([4]; 250 nM in hydrogel conduit) was 6 weeks and the “time at which FBA improvement became statistically significant from the vehicle control group” value ([4]; 250 nM in hydrogel conduit) was 10 weeks. The “average FBA (foot base angle)” value ([4]; 250 nM in hydrogel conduit) was 82 degrees, the “average recovery index (RI) for the FBA” value ([4]; 250 nM, 15 weeks, vehicle control 37%) was 62% and the “time to return to pre-surgery PLR (protraction limb ratio)” value ([4]; 250 nM, vehicle control 8 weeks) was at most 6 weeks. For the same molecule, the “PLR versus other groups (in words)” value ([4]; 2,500 nM) was “remained consistently higher than the other two groups”, the “FBA recovery versus vehicle control (in words)” value ([4]; 2,500 nM in hydrogel conduit) was “did not show statistically significant difference from vehicle control” and the “average FBA (foot base angle)” value ([4]; 2,500 nM in hydrogel conduit) was 87 degrees. For the same molecule, the “recovery index (RI) for the FBA” value ([4]; 2,500 nM, 15 weeks, vehicle control 37%, considerable variation) was 51%, the “RI of the PLR reached by the majority of mice” value ([4]; 2,500 nM, a single mouse did not recover) was 100% and the “average quadriceps muscle mass, injured limb” value ([5]; 250 nM, non-injured legs 208 mg) was 165 mg. The “quadriceps muscle mass, injured limb” value ([5]; 2,500 nM, failed to reach statistical significance) was 127 mg.
